Measured values taken from patent publication US20230002367A1, “BIFUNCTIONAL COMPOUNDS” (Hoffmann-La Roche Inc., priority 2019, published 2023).
Like-named read-outs stand apart in the source and are kept apart here.

Target: T1, SMARCA2 (Homo sapiens, UniProt P51531)
T1 construct: endogenous in cells
Assay: SMARCA2 HiBiT degradation assay (cellular)
Format: cell-based
Conditions: for DC50: read-out: HiBit A549 SMARCA2 IP

[1] = A549, Emax = amount of residual protein remaining in the cell following compound treatment
[2] = SMARCA2 HiBiT cells, luminescence readout, 11-point titration from 10 μM, 6 hours or 16 hours

T1 sequence (P51531 whole entry): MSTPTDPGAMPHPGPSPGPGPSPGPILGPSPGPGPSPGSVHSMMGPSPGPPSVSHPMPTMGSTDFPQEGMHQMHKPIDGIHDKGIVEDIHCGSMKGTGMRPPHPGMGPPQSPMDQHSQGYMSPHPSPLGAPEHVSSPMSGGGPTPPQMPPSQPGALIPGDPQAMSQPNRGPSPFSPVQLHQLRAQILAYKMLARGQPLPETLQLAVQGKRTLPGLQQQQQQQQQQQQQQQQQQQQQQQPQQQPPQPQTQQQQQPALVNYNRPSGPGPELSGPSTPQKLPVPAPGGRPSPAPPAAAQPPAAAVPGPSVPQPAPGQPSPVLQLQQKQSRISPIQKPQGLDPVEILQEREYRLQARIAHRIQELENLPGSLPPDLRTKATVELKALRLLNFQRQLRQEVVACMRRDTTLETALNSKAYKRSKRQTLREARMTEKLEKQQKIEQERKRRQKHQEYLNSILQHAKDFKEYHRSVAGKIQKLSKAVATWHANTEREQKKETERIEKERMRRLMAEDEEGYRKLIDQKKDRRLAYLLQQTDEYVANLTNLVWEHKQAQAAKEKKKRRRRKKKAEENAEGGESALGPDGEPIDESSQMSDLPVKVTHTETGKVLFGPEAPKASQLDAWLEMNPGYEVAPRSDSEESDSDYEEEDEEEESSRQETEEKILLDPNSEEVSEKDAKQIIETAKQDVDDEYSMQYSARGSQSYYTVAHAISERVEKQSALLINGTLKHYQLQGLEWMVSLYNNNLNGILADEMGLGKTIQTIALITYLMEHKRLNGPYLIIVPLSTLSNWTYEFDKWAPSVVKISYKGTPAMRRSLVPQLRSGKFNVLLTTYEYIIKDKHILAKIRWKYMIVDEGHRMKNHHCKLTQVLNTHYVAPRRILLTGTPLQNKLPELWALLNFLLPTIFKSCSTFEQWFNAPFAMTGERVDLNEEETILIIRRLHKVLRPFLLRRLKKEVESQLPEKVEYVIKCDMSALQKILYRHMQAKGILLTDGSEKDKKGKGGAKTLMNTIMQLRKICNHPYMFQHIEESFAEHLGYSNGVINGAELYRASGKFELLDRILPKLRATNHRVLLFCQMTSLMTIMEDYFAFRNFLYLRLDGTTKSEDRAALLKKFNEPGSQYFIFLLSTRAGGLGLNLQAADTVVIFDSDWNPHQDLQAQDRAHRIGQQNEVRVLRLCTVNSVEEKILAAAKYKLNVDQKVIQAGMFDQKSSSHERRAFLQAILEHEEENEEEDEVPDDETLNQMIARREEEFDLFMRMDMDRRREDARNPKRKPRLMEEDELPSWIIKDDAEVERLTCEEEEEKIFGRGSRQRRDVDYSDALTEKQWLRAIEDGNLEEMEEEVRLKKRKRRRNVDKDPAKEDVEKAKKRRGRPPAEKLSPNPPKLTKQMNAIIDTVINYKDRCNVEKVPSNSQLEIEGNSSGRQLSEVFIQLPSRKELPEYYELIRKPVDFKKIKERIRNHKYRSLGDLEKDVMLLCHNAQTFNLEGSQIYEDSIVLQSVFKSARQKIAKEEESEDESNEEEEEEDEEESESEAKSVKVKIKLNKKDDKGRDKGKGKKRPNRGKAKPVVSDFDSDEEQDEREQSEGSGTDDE

| Emax [1] [%] | DC50 [2] [nM] | SMILES | Emax (A549, different HIBIT SMARCA2 clone (footnote a), residual protein remaining) [%] | DC50 (different HIBIT SMARCA2 clone (footnote a)) [nM] |
| --- | --- | --- | --- | --- |
| 59 | 827 | Cc1ncsc1-c1ccc(CNC(=O)[C@@H]2C[C@@H](O)CN2C(=O)[C@@H](NC(=O)CCCCCCCCC(=O)N2CCC(CNC(=O)C3(c4ccccc4)CCN(c4cc(-c5ccccc5O)nnc4N)CC3)CC2)C(C)(C)C)cc1 [Example 99, 1-[3-amino-6-(2-hydroxyphenyl)pyridazin-4-yl]-N-[[1-[10-[[(1S)-1-[(2S,4R)-4-hydroxy-2-[[4-(4-methylthiazol-5-yl)phenyl]methylcarbamoyl]pyrrolidine-1-carbonyl]-2,2-dimethyl-propyl]amino]-10-oxo-decanoyl]-4-piperidyl]methyl]-4-phenyl-piperidine-4-carboxamide] |  |  |
| 62 | 998 | Cc1ncsc1-c1ccc(CNC(=O)[C@@H]2C[C@@H](O)CN2C(=O)[C@@H](NC(=O)CCCCCCCCC(=O)N2CCN(c3ccc(N4CCCC(Oc5cc(-c6ccccc6N)nnc5N)C4)cc3)CC2)C(C)(C)C)cc1 (stereo partly drawn) [Example 100, (2S,4R)-1-[(2S)-2-[[10-[4-[4-[3-[3-amino-6-(2-aminophenyl)pyridazin-4-yl]oxy-1-piperidyl]phenyl]piperazin-1-yl]-10-oxo-decanoyl]amino]-3,3-dimethyl-butanoyl]-4-hydroxy-N-[[4-(4-methylthiazol-5-yl)phenyl]methyl]pyrrolidine-2-carboxamide] |  |  |
| 38 | 101 | Cc1ncsc1-c1ccc([C@H](C)NC(=O)[C@@H]2C[C@@H](O)CN2C(=O)[C@@H](NC(=O)CCCCCCCCC(=O)N2CCN(C(=O)c3cccc(OC4CN(c5cc(-c6ccccc6O)nnc5N)C4)c3)CC2)C(C)(C)C)cc1 [Example 101, (2S,4R)-1-[(2S)-2-[[10-[4-[3-[1-[3-amino-6-(2-hydroxyphenyl)pyridazin-4-yl]azetidin-3-yl]oxybenzoyl]piperazin-1-yl]-10-oxo-decanoyl]amino]-3,3-dimethyl-butanoyl]-4-hydroxy-N-[(1S)-1-[4-(4-methylthiazol-5-yl)phenyl]ethyl]pyrrolidine-2-carboxamide] |  |  |
| 60 | 1890 | Cc1ncsc1-c1ccc([C@H](C)NC(=O)[C@@H]2C[C@@H](O)CN2C(=O)[C@@H](NC(=O)CCCCCC(=O)N2CCN(C(=O)c3ccc(OC4CN(c5cc(-c6ccccc6O)nnc5N)C4)cc3)CC2)C(C)(C)C)cc1 [Example 103, (2S,4R)-1-[(2S)-2-[[7-[4-[4-[1-[3-amino-6-(2-hydroxyphenyl)pyridazin-4-yl]azetidin-3-yl]oxybenzoyl]piperazin-1-yl]-7-oxo-heptanoyl]amino]-3,3-dimethyl-butanoyl]-4-hydroxy-N-[(1S)-1-[4-(4-methylthiazol-5-yl)phenyl]ethyl]pyrrolidine-2-carboxamide] |  |  |
| 54 | 375 | Cc1ncsc1-c1ccc([C@H](C)NC(=O)[C@@H]2C[C@@H](O)CN2C(=O)[C@@H](NC(=O)CCCCCCCCC(=O)N2CCN(C(=O)c3ccc(OC4CN(c5cc(-c6ccccc6O)nnc5N)C4)cc3)CC2)C(C)(C)C)cc1 [Example 104, (2S,4R)-1-[(2S)-2-[[10-[4-[4-[1-[3-amino-6-(2-hydroxyphenyl)pyridazin-4-yl]azetidin-3-yl]oxybenzoyl]piperazin-1-yl]-10-oxo-decanoyl]amino]-3,3-dimethyl-butanoyl]-4-hydroxy-N-[(1S)-1-[4-(4-methylthiazol-5-yl)phenyl]ethyl]pyrrolidine-2-carboxamide] |  |  |
| 40 | 923 | Cc1ncsc1-c1ccc([C@H](C)NC(=O)[C@@H]2C[C@@H](O)CN2C(=O)[C@@H](NC(=O)CCCCCC(=O)N2CCN(Cc3cccc(CCOc4cc(-c5ccccc5O)nnc4N)c3)CC2)C(C)(C)C)cc1 [Example 105, (2S,4R)-1-[(2S)-2-[[7-[4-[[3-[2-[3-amino-6-(2-hydroxyphenyl)pyridazin-4-yl]oxyethyl]phenyl]methyl]piperazin-1-yl]-7-oxo-heptanoyl]amino]-3,3-dimethyl-butanoyl]-4-hydroxy-N-[(1S)-1-[4-(4-methylthiazol-5-yl)phenyl]ethyl]pyrrolidine-2-carboxamide] |  |  |
| 39 | 346 | Cc1ncsc1-c1ccc([C@H](C)NC(=O)[C@@H]2C[C@@H](O)CN2C(=O)[C@@H](NC(=O)CCCCCCCCC(=O)N2CCN(Cc3cccc(CCOc4cc(-c5ccccc5O)nnc4N)c3)CC2)C(C)(C)C)cc1 [Example 106, (2S,4R)-1-[(2S)-2-[[10-[4-[[3-[2-[3-amino-6-(2-hydroxyphenyl)pyridazin-4-yl]oxyethyl]phenyl]methyl]piperazin-1-yl]-10-oxo-decanoyl]amino]-3,3-dimethyl-butanoyl]-4-hydroxy-N-[(1S)-1-[4-(4-methylthiazol-5-yl)phenyl]ethyl]pyrrolidine-2-carboxamide] |  |  |
|  |  | Cc1ncsc1-c1ccc(CNC(=O)[C@@H]2C[C@@H](O)CN2C(=O)[C@@H](NC(=O)CCCCCCCCC(=O)N2CCN(Cc3cccc(N4C5CCC4CN(c4cc(-c6cc(F)ccc6O)nnc4N)C5)c3)CC2)C(C)(C)C)cc1 [Example 107, (2S,4R)-1-[(2S)-2-[[10-[4-[[3-[3-[3-amino-6-(5-fluoro-2-hydroxy-phenyl)pyridazin-4-yl]-3,8-diazabicyclo[3.2.1]octan-8-yl]phenyl]methyl]piperazin-1-yl]-10-oxo-decanoyl]amino]-3,3-dimethyl-butanoyl]-4-hydroxy-N-[[4-(4-methylthiazol-5-yl)phenyl]methyl]pyrrolidine-2-carboxamide] | 18 | 82 |

| SMILES | Emax [1] [%] | DC50 [2] [nM] | Emax (A549, different HIBIT SMARCA2 clone (footnote a), residual protein remaining) [%] | DC50 (different HIBIT SMARCA2 clone (footnote a)) [nM] |
| --- | --- | --- | --- | --- |
| Cc1ncsc1-c1ccc(CNC(=O)[C@@H]2C[C@@H](O)CN2C(=O)[C@@H](NC(=O)CCCCCCCCCC(=O)N2CCN(Cc3cccc(N4C5CCC4CN(c4cc(-c6ccccc6N)nnc4N)C5)c3)CC2)C(C)(C)C)cc1 [Example 102, (2S,4R)-1-[(2S)-2-[[11-[4-[[3-[3-[3-amino-6-(2-aminophenyl)pyridazin-4-yl]-3,8-diazabicyclo[3.2.1]octan-8-yl]phenyl]methyl]piperazin-1-yl]-11-oxo-undecanoyl]amino]-3,3-dimethyl-butanoyl]-4-hydroxy-N-[[4-(4-methylthiazol-5-yl)phenyl]methyl]pyrrolidine-2-carboxamide] | 59 | 992 |  |  |
| Cc1ncsc1-c1ccc(CNC(=O)[C@@H]2C[C@@H](O)CN2C(=O)[C@@H](NC(=O)CCCCCCCCCC(=O)N2CCN(CCOc3cccc(N4CC5CCC(C4)N5c4cc(-c5cc(F)ccc5O)nnc4N)c3)CC2)C(C)(C)C)cc1 [Example 110, (2S,4R)-1-[(2S)-2-[[11-[4-[2-[3-[8-[3-amino-6-(5-fluoro-2-hydroxy-phenyl)pyridazin-4-yl]-3,8-diazabicyclo[3.2.1]octan-3-yl]phenoxy]ethyl]piperazin-1-yl]-11-oxo-undecanoyl]amino]-3,3-dimethyl-butanoyl]-4-hydroxy-N-[[4-(4-methylthiazol-5-yl)phenyl]methyl]pyrrolidine-2-carboxamide] | 76 | 760 |  |  |
